From US20060263802A1 (priority 2003, published 2006)

How the values were obtained:
Format in all cases: binding
[1] = test system: human monoclonal antibody CRJB
[2] = test system: human monoclonal antibody CRJA
[3] = test system: human monoclonal antibody CR57
[4] = test system: human monoclonal antibody CRJB; remark: listed apart in the source
[5] = test system: human monoclonal antibody CR57; remark: listed apart in the source
[6] = test system: human monoclonal antibody CRJA; remark: listed apart in the source

Sequence	Binding of CRJB (10 μg/ml) to looped/cyclic peptide (PEPSCAN-ELISA signal) [1]	Binding of CRJA to linear peptide (PEPSCAN-ELISA signal) [2]	Binding of CR57 to linear peptide (PEPSCAN-ELISA signal) [3]	Binding of CRJB to linear peptide (PEPSCAN-ELISA signal) [4]	Binding of CR57 (10 μg/ml) to looped/cyclic peptide (PEPSCAN-ELISA signal) [5]	Binding of CRJA (10 μg/ml) to looped/cyclic peptide (PEPSCAN-ELISA signal) [6]	Binding of CRJB (10 μg/ml) to looped/cyclic peptide (PEPSCAN-ELISA) [1]	Binding of CR57 (10 μg/ml) to looped/cyclic peptide (PEPSCAN-ELISA) [5]	Binding of CRJA (10 μg/ml) to looped/cyclic peptide (PEPSCAN-ELISA) [6]	binding of antibody CR57 to linear peptide (PEPSCAN OD) [3]	Binding of CRJB to looped/cyclic peptide (PEPSCAN-ELISA signal) [1]	Binding of human monoclonal antibody CRJA to linear peptide (PEPSCAN-ELISA signal) [2]	Binding of human monoclonal antibody CR57 to linear peptide (PEPSCAN-ELISA signal) [3]	Binding of human monoclonal antibody CRJB to linear peptide (PEPSCAN-ELISA signal) [4]	Binding of CR57 to looped/cyclic peptide (PEPSCAN-ELISA signal) [5]	Binding of CRJA to looped/cyclic peptide (PEPSCAN-ELISA signal) [6]
LVIISPSVADLDPYD	102	104	85	107	98	117										
WLRTVKTTKESLVII	78	85	41	104	55	78										
PEMQSSLLQQHMELL		79	62	133			82	72	78							
HMELLESSVIPLVHP		114	110	129			104	118	106							
KLKLCGVLGLRLMDG		101	273	120			63	13	79	bound						
VEDEGCTNLSGFSYM	78	82	74	103	83	86										
ILGPDGNVLIPEMQS		90	125	134			92	143	100							
GLRLMDGTWVAMQTS		108	104	138			99	120	100							
WCPPDQLVNLHDFRS		114	101	119			106	105	111							
EAEDFVEVHLPDVHN											93	97	76	117	98	105
FTCTGVVTEAENYTN	96	91	83	125	123	96										
VFFNGIILGPDGNVL		82	55	132			93	110	83							
ESSVIPLVHPLADPS		121	104	138			92	108	91							
FKRKHFRPTPDACRA	72	86	64	92	148	86										
KSVSFRRLSHLRKLV		111	108	124			97	114	88							
PLVHPLADPSTVFKD		90	93	112			90	101	104							
DERGLYKSLKGACKL		76	90	119			123	152	85							
HDFRSDEIEHLVVEE		78	69	107			79	24	111							
VPGFGKAYTIFNKTL		96	58	114			42	74	87							
HDYTIWMPENPRLGM	96	110	82	125	88	97										
FGKAYTIFNKTLMEA		85	90	151			78	114	96							
MNGFTCTGVVTEAEN	118	87	69	99	85	78										
VTTTFKRKHFRPTPD	83	77	79	105	101	89										
REECLDALESIMTTK		94	94	110			79	89	92							
